Reference: US4661603A, “Imidazole derivatives” (Yoshitomi Pharmaceutical Industries, Ltd., priority 1982, dated 1987)

What was measured:
platelet aggregation = test: Inhibitory activities on platelet aggregation (ex vivo, arachidonic acid, after oral administration to rabbits); format: in vivo, rabbit; settings: Oryctolagus cuniculus, 1 h, blood one hour after administration, read-out: Inhibitory activities on platelet aggregation, Rate of inhibition
Procedure: According to the method described in Journal of Physiology, vol. 162, page 67 (1962), the inhibitory activities of compounds of this invention on platelet aggregation were measured from the changes in transmittance with an aggregometer (Rikadenki Electronics Co., Japan).
Before and one hour after the oral administration of test compounds to rabbits, blood was collected. The blood was mixed with sodium citrate in the ratio of 9:1 by volume. Platelet rich plasma (PRP) was prepared by centrifuging the citrated blood at 1000 rpm for 10 minutes, and platelet poor plasma (PPP), by centrifuging the remaining citrated blood at 3000 rpm for 10 minutes.
The transmittance of aggregometer was adjusted to 0 and 100% with PRP and PPP, respectively. To 0.3 ml of a PRP sample was added 0.003 ml of arachidonic acid solution. The changes in transmittance of the mixture were measured using the aggregometer with stirring at 1200 rpm.
Inhibitory activities on platelet aggregation were assessed as % inhibition by comparing the rate of aggregation of treated PRP with that of blood collected before the oral administration of test compounds.

[1] = Acute toxicity (oral LD50); settings: rat, in vivo, p.o., six male Wistar rats
Procedure: According to the method described in Journal of Pharmacological and Experimental Therapeutics, vol. 96, page 99 (1949), the test compounds were orally administered to a group consisting of six male Wistar rats. The 50% lethal doses (LD50, mg/kg) were determined.

prostacyclin synthetase = biological target: T1, prostacyclin synthetase (Rattus norvegicus, UniProt Q62969); test: Inhibitory effect on prostacyclin synthetase; format: biochemical; settings: in vitro; rat aorta ring; 1.7 μM 14C-arachidonic acid, 37° C., 20 minutes; read-out: Inhibitory effect on prostacyclin synthetase (50% inhibitory molar concentration)
T1 construct: incubating the rat arota ring; from tissue; host or cells: rat aorta ring
T1 sequence (Q62969 1-501): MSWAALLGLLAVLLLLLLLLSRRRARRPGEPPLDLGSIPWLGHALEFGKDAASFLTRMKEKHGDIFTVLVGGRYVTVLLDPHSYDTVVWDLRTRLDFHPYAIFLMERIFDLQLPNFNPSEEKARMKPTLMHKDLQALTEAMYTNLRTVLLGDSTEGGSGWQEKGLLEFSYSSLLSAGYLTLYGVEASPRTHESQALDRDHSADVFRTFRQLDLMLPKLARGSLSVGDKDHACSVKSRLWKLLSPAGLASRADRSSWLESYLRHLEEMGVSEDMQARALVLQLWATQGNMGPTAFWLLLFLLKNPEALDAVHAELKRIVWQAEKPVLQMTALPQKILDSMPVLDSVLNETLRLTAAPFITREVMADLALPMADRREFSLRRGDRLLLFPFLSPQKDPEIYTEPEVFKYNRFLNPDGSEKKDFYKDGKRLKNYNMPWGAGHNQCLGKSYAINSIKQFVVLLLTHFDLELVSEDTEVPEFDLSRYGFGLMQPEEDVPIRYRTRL
Procedure: (§1) Effects of test compounds on thromboxane synthetase, cyclo-oxygenase and prostacyclin synthetase were examined in vitro by the following methods:
According to the method described in Journal of Pharmacology and Experimental Therapeutics, vol. 215, page 240 (1980), prostacyclin was formed by incubating the rat arota ring with 1.7 μM ^14 C-arachidonic acid at 37° C. for 20 minutes. Since prostacyclin is extremely short-lived, 6-keto-prostaglandin F1α, which is a stable degradation product of prostacyclin, was separated and assayed using the same method as (a).
The inhibitory activities of test compounds on prostacyclin synthetase were assessed by comparing the contents of 6-keto-prostaglandin F1α formed in the presence and the absence of test compounds.

cyclo-oxygenase = biological target: T2, cyclo-oxygenase (Bos taurus, UniProt O62664); test: Inhibitory effect on cyclo-oxygenase; format: biochemical; settings: in vitro; bovine seminal vesicle microsomes; 104.3 μM 14C-arachidonic acid, 25° C., 10 minutes; read-out: Inhibitory effect on cyclo-oxygenase (50% inhibitory molar concentration)
T2 construct: bovine seminal vesicle microsomes; from tissue; host or cells: bovine seminal vesicle microsomes
T2 sequence (O62664 25-600): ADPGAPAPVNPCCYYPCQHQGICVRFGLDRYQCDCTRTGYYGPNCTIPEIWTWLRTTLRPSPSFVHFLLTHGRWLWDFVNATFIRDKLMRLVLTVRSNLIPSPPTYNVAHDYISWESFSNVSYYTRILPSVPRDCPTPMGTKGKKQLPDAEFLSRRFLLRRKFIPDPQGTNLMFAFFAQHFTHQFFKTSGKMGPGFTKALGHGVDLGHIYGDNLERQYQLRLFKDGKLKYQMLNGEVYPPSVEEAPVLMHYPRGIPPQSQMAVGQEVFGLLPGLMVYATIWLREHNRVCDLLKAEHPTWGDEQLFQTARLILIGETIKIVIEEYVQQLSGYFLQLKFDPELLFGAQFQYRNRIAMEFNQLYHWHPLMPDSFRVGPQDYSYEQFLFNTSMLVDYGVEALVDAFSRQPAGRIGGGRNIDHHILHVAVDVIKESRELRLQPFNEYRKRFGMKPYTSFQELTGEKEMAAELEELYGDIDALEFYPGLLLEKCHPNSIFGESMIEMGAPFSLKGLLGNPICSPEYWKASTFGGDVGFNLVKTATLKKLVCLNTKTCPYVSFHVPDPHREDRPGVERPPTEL
Procedure: as §1
According to the method described in Proceedings of National Academy of Sciences, U.S.A., vol. 71, page 3645 (1974), bovine seminal vesicle microsomes were incubated with 104.3 μM ^14 C-arachidonic acid at 25° C. for 10 minutes. Prostaglandin E2 thus formed was separated and assayed using the same method as (a).
The inhibitory activities of test compounds on cyclo-oxygenase were assessed by comparing the contents of prostaglandin E2 formed in the presence and absence of test compounds.

thromboxane synthetase = biological target: T3, thromboxane synthetase (Homo sapiens, UniProt P24557); test: Inhibitory effect on thromboxane synthetase; format: biochemical; settings: in vitro; human platelet microsomes; 4.3 μM 14C-arachidonic acid, 25° C., 5 minutes; read-out: Inhibitory effect on thromboxane synthetase (50% inhibitory molar concentration)
T3 construct: incubating human platelet microsomes; from tissue; host or cells: human platelet microsomes
T3 sequence (P24557 1-533): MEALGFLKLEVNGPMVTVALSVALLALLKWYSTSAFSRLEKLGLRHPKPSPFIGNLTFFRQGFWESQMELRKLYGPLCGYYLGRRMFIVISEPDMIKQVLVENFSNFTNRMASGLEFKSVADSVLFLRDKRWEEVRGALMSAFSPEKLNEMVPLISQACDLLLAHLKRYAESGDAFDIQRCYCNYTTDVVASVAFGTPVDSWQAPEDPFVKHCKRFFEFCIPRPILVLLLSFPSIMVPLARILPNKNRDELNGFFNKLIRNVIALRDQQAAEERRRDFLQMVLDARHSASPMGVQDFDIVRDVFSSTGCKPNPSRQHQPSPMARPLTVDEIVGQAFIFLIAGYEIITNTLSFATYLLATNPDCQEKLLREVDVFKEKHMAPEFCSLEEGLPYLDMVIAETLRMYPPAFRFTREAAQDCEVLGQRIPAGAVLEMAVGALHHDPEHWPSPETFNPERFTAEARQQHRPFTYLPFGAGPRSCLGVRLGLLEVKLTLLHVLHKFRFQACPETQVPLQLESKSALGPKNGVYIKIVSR
Procedure: as §1
According to the method described in Journal of Biological Chemistry, vol. 252, page 5871 (1977), thromboxane was produced by incubating human platelet microsomes with 4.3 μM ^14 C-arachidonic acid at 25° C. for 5 minutes. Since thromboxane A2 is extremely short-lived, thromboxane B2, which is a stable degradation product of thromboxane A2, was assayed. The incubation mixture was extracted with ethyl acetate, and thromboxane B2 was separated on a thin-layer chromatogram. The zone of thromboxane B2 on a silica gel plate was detected with a radiochromatoscanner and scraped off. The radioactivities were determined with a liquid scintilation counter.
The inhibitory activities of test compounds on thromboxane synthetase were assessed by comparing the contents of thromboxane formed in the presence and the absence of test compounds.

Row | Compound | inhibition at 10 mg/kg (platelet aggregation) [%] | LD50 [1] [mg/kg] | IC50 (prostacyclin synthetase) [µM] | IC50 (cyclo-oxygenase) [µM] | IC50 (thromboxane synthetase) [µM]
1 | Cc1cc(C)c(C(O)c2cccc(-n3ccnc3)c2C)c(C)c1 (stereo not drawn) [α-(2,4,6-Trimethylphenyl)-2-methyl-3-(1-imidazolyl)benzenemethanol] | 68 | > 1000 |  |  | 
2 | Cc1cc(C)c(C(O)c2ccc(C)c(-n3ccnc3)c2)c(C)c1 (stereo not drawn) [α-(2,4,6-Trimethylphenyl)-4-methyl-3-(1-imidazolyl)benzenemethanol] | 88 | > 1000 |  |  | 
3 | Cc1cc(C)c(C(O)c2cc(-n3ccnc3)ccc2Cl)c(C)c1 (stereo not drawn) [α-(2,4,6-trimethylphenyl)-2-chloro-5-(1-imidazolyl) benzenemethanol] | 71 | > 1000 | > 1000 | > 1000 | 2.3
4 | Cc1cc(C)c(C(O)c2cc(-n3ccnc3)ccc2C)c(C)c1 (stereo not drawn) [α-(2,4,6-trimethylphenyl)-2-methyl-5-(1-imidazolyl)benzenemethanol] | 100 | > 1000 |  |  | 0.82
5 | Cc1cc(C)c(C(O)c2cccc(-n3ccnc3)c2)c(C)c1 (stereo not drawn) [α-(2,4,6-trimethylphenyl)-3-(1-imidazolyl)benzenemethanol] | 100 | > 1000 | > 100 | > 1000 | 0.34
6 | Cc1cc(C)c(C(O)c2ccc(-n3ccnc3)c(Cl)c2)c(C)c1 (stereo not drawn) [α-(2,4,6-trimethylphenyl)-3-chloro-4-(1-imidazolyl)benzenemethanol] | 80 | > 1000 | > 100 | > 100 | 0.18
7 | Cc1cc(C(=O)O)cc(C)c1C(O)c1cc(-n2ccnc2)ccc1Cl (stereo not drawn) [α-(2,6-dimethyl-4-carboxyphenyl)-2-chloro-5-(1-imidazolyl)benzenemethanol] | 100 | > 1000 | > 100 | > 100 | 0.052
8 | Cc1ccc(-n2ccnc2)cc1C(O)c1c(C)cc(C(=O)O)cc1C (stereo not drawn) [α-(2,6-dimethyl-4-carboxyphenyl)-2-methyl-5-(1-imidazolyl)benzenemethanol] | 100 | > 1000 | > 100 | > 100 | 0.022
9 | CCOC(=O)c1cc(C)c(C(O)c2cc(-n3ccnc3)ccc2C)c(C)c1 (stereo not drawn) [α-(2,6-dimethyl-4-ethoxycarbonylphenyl)-2-methyl-5-(1-imidazolyl)benzenemethanol] | 100 | > 1000 | > 100 | > 100 | 
10 | Cc1ccc(-n2ccnc2)cc1C(O)c1c(C)cc(C(=O)OC(C)C)cc1C (stereo not drawn) [α-(2,6-dimethyl-4-isopropoxycarbonylphenyl)-2-methyl-5-(1-imidazolyl)benzenemethanol] | 76 | > 1000 | > 100 | > 100 | 
11 | COC(=O)c1cc(C)c(C(O)c2cc(-n3ccnc3)ccc2C)c(C)c1 (stereo not drawn) [α-(2,6-dimethyl-4-methoxycarbonylphenyl)-2-methyl-5-(1-imidazolyl)benzenemethanol] | 100 | > 1000 | > 100 | > 100 | 0.7
